Measurements taken from patent US7351744B2, “Naphthalene derivatives as termite repellents and toxicants” (Board of Supervisors of Louisiana State University and …, priority 2003, dated 2008).

How the values were obtained:
[1] = system: C. formosanus workers and soldiers; assay: Topical application toxicity assay; format: in vivo, Coptotermes formosanus
Procedure: Dose-mortality data were analyzed using probit analysis as adapted for PC use (POLO-PC), which automatically corrected for control mortality using Abbott's transformation. See, e.g., R. M Russell et al., “POLO: a new computer program for probit analysis,” Bull. Entomol. Soc. Am., vol. 23, pp. 209-213 (1977); and LeOra Software, “POLO-PC, a user's guide to probit analysis or logit analysis” (1987). The LD50s of workers and soldiers from four tested colonies (y) were plotted against the average weight of tested termites (x) to establish a linear regression equation and conduct correlation analyses. Mean survival, food consumption and tunnel areas were compared among treatments using analysis of variance (ANOVA), followed by least significant difference procedures. See, SAS Institute, SAS/STAT User's Guide: version 8, SAS Institute, Inc., Cary, N.C. (1999). In two-choice assays using either treated filter paper or treated sand, the parameters measured in the two lateral sides of each treatment were compared using paired t-tests. All data were judged at α=0.05.
Acute toxicity of 2′-acetonaphthone was bioassayed using doses that ranged from 1.25 to 20 ug/termite. At stock solution of 2′-acetonaphthone was prepared ([…]). Dilutions were made by taking aliquots from the stock solution (62.5, 125, 250, 375, 500, 750, and 1000 μl), and adjusting each volume to 2 ml with acetone. A group of 20 workers or soldiers (from colonies BS, WB, E and CR) were placed in a Petri dish (6 cm×1.5 cm) and chilled on top of an ice brick (30.32 cm×17.78 cm×3.81 cm; IceBerg, Mid-Lands Chemical Company, Inc., Miami, Fla.) to slow their movement. Each termite was treated with a topical dose in 0.2 μl acetone to the dorsum of the mesothorax using a Hamilton PB 600 Repeating Dispenser equipped with a 10 μl syringe (Hamilton, Reno, Nev.). The experimental termites were treated with doses equivalent to 1.25, 2.50, 5.0, 7.5, 10.0, 15.0, and 20.0 μg/termite. Control termites were dosedwith only 0.2 μl acetone. Five replicates, each with 20 workers or 20 soldiers, were used for each dose and control. For each replicate, termites were maintained in a plastic container (5.5 cm×3.7 cm, Pioneer Pckaging Co., North Dixon, Ky.), each provided with a filter paper (Whatman #2, 55 mm diameter) wetted with 250 μl double distilled water (DDH20). The containers were covered with lids, and kept for 2 days at room temperature (26-28° C.). Daily mortality in each dish was recorded. Termites were considered dead if unable to right themselves when prodded with a fine paint brush.

[2] = system: C. formosanus workers and soldiers; assay: Treated filter paper as the sole food source; format: in vivo, Coptotermes formosanus; conditions: for Percent survival: colonies C and WB combined
Procedure: To assay the effect of 2′-acetonaphthone on termites when added to a sole food source, acute and cumulative toxicities of 2′-acetonaphthone-treated filter paper (Whatman #2) and balsa wood (Ochroma lagopus Swartz) slices (2.3 cm×4.0 cm) were evaluated. Seven concentrations (0, 1, 10, 50, 100, 500, and 1000 mg/l) were prepared in 100 ml ethanol. Six filter papers and six wood slices were soaked in each concentration for 4 h; control filter papers and wood slices were soaked only in ethanol. After treatment, the food sources were kept overnight at ambient conditions for solvent evaporation. Eighty-four plastic containers (5.5 cm diameter×3.7 cm height) were provided with 22 g of wetted sand (20 g sand (fine blasting sand #4, Cement Products Inc., Baton Rouge, La.) mixed with 2 ml DDH2O). Then either a filter paper or a wood slice was separately placed to fit on the surface of the wetted sand and wetted with DDH2O (250 μl). Into each container, fifty workers and 20 soldiers were placed on the surface of the filter paper or wood slice. For each concentration and food sourse, three replicates received termites from colony C, and three replicates received termites from colony WB. The containers were covered and incubated for 10 days at 27.4° C. and 70% RH. Containers were monitored everytwo days to ensure suitable moisture. On days 1, 5 and 10, the number of living workers and soldiers were counted. An average percent survival was calculated for each treatment. (See Tables 2 and 3).

CC(=O)c1ccc2ccccc2c1 [2′-acetonaphthone]
LD50 (95% CL) ([1]; colony BS, 24 hours, Soldier): 3.24 (2.27-4.24) μg/termite | LD90 (95% CL) ([1]; colony BS, 24 hours, Soldier): 13.60 (8.86-15.01) μg/termite | LD50 (95% CL) ([1]; colony BS, 24 hours, Worker): 2.21 (1.91-2.49) μg/termite | LD90 (95% CL) ([1]; colony BS, 24 hours, Worker): 7.11 (6.14-8.58) μg/termite | LD50 (95% CL) ([1]; colony BS, 48 hours, Soldier): 2.02 (1.49-2.46) μg/termite | LD90 (95% CL) ([1]; colony BS, 48 hours, Soldier): 4.07 (3.37-5.37) μg/termite | LD50 (95% CL) ([1]; colony BS, 48 hours, Worker): 1.74 (1.49-1.96) μg/termite | LD90 (95% CL) ([1]; colony BS, 48 hours, Worker): 4.19 (3.73-4.83) μg/termite | LD50 (95% CL) ([1]; colony CR, 24 hours, Soldier): 3.49 (2.49-4.51) μg/termite | LD90 (95% CL) ([1]; colony CR, 24 hours, Soldier): 8.09 (5.94-16.01) μg/termite | LD50 (95% CL) ([1]; colony CR, 24 hours, Worker): 2.93 (2.24-3.59) μg/termite | LD90 (95% CL) ([1]; colony CR, 24 hours, Worker): 7.23 (5.59-11.34) μg/termite | LD50 (95% CL) ([1]; colony CR, 48 hours, Soldier): 2.02 (1.48-2.48) μg/termite | LD90 (95% CL) ([1]; colony CR, 48 hours, Soldier): 4.26 (3.45-5.92) μg/termite | LD50 (95% CL) ([1]; colony CR, 48 hours, Worker): 2.67 (1.87-3.35) μg/termite | LD90 (95% CL) ([1]; colony CR, 48 hours, Worker): 6.09 (4.85-8.82) μg/termite | LD50 (95% CL) ([1]; colony E, 24 hours, Soldier): 5.12 (3.99-7.24) μg/termite | LD90 (95% CL) ([1]; colony E, 24 hours, Soldier): 14.06 (9.51-19.26) μg/termite | LD50 (95% CL) ([1]; colony E, 24 hours, Worker): 7.24 (5.22-9.36) μg/termite | LD90 (95% CL) ([1]; colony E, 24 hours, Worker): 19.69 (14.02-25.58) μg/termite | LD50 (95% CL) ([1]; colony E, 48 hours, Soldier): 4.19 (3.14-6.20) μg/termite | LD90 (95% CL) ([1]; colony E, 48 hours, Soldier): 12.32 (8.23-15.32) μg/termite | LD50 (95% CL) ([1]; colony E, 48 hours, Worker): 3.82 (2.68-5.83) μg/termite | LD90 (95% CL) ([1]; colony E, 48 hours, Worker): 11.77 (7.66-17.79) μg/termite | LD50 (95% CL) ([1]; colony WB, 24 hours, Soldier): 2.16 (0.56-6.23) μg/termite | LD90 (95% CL) ([1]; colony WB, 24 hours, Soldier): 5.48 (1.42-15.81) μg/termite | LD50 (95% CL) ([1]; colony WB, 24 hours, Worker): 1.75 (0.76-2.76) μg/termite | LD90 (95% CL) ([1]; colony WB, 24 hours, Worker): 6.33 (3.71-12.46) μg/termite | LD50 (95% CL) ([1]; colony WB, 48 hours, Soldier): 2.17 (0.49-5.76) μg/termite | LD90 (95% CL) ([1]; colony WB, 48 hours, Soldier): 5.59 (1.23-14.49) μg/termite | LD50 (95% CL) ([1]; colony WB, 48 hours, Worker): 1.71 (0.42-1.95) μg/termite | LD90 (95% CL) ([1]; colony WB, 48 hours, Worker): 3.09 (2.70-3.72) μg/termite | 48 h-LD90 ([1]; soldiers, range over the four colonies): 4.07-12.32 μg/soldier | Percent survival ([2]; filter paper 1 mg/l, Day 1, Soldier): 84.17 ± 9.26 a % | Percent survival ([2]; filter paper 1 mg/l, Day 1, Worker): 87.67 ± 5.83 a % | Percent survival ([2]; filter paper 1 mg/l, Day 5, Soldier): 58.33 ± 10.14 a % | Percent survival ([2]; filter paper 1 mg/l, Day 5, Worker): 73.0 ± 8.24 a % | Percent survival ([2]; filter paper 1 mg/l, Day 10, Soldier): 60.83 ± 13.07 a % | Percent survival ([2]; filter paper 1 mg/l, Day 10, Worker): 55.67 ± 8.98 a % | Percent survival ([2]; filter paper 10 mg/l, Day 1, Soldier): 80.0 ± 9.49 a % | Percent survival ([2]; filter paper 10 mg/l, Day 1, Worker): 84.0 ± 4.95 a % | Percent survival ([2]; filter paper 10 mg/l, Day 5, Soldier): 56.67 ± 12.49 a % | Percent survival ([2]; filter paper 10 mg/l, Day 5, Worker): 66.67 ± 9.71 ab % | Percent survival ([2]; filter paper 10 mg/l, Day 10, Soldier): 50.0 ± 12.91 a % | Percent survival ([2]; filter paper 10 mg/l, Day 10, Worker): 53.67 ± 12.92 a % | Percent survival ([2]; filter paper 50 mg/l, Day 1, Soldier): 72.50 ± 11.46 a % | Percent survival ([2]; filter paper 50 mg/l, Day 1, Worker): 80.33 ± 9.76 a % | Percent survival ([2]; filter paper 50 mg/l, Day 5, Soldier): 42.50 ± 9.56 a % | Percent survival ([2]; filter paper 50 mg/l, Day 5, Worker): 68.33 ± 11.56 ab % | Percent survival ([2]; filter paper 50 mg/l, Day 10, Soldier): 35.83 ± 8.41 a % | Percent survival ([2]; filter paper 50 mg/l, Day 10, Worker): 55.0 ± 12.07 a % | Percent survival ([2]; filter paper 100 mg/l, Day 1, Soldier): 73.33 ± 5.87 a % | Percent survival ([2]; filter paper 100 mg/l, Day 1, Worker): 80.0 ± 6.68 a % | Percent survival ([2]; filter paper 100 mg/l, Day 5, Soldier): 33.33 ± 11.53 a % | Percent survival ([2]; filter paper 100 mg/l, Day 5, Worker): 48.33 ± 10.33 b % | Percent survival ([2]; filter paper 100 mg/l, Day 10, Soldier): 17.50 ± 5.74 b % | Percent survival ([2]; filter paper 100 mg/l, Day 10, Worker): 40.67 ± 9.98 a % | Percent survival ([2]; filter paper 500 mg/l, Day 1, Soldier): 14.17 ± 5.23 b % | Percent survival ([2]; filter paper 500 mg/l, Day 1, Worker): 18.33 ± 6.60 b % | Percent survival ([2]; filter paper 500 mg/l, Day 5, Soldier): 0.0 ± 0.0 b % | Percent survival ([2]; filter paper 500 mg/l, Day 5, Worker): 0.0 ± 0.0 c % | Percent survival ([2]; filter paper 500 mg/l, Day 10, Soldier): 0.0 ± 0.0 c % | Percent survival ([2]; filter paper 500 mg/l, Day 10, Worker): 0.0 ± 0.0 b % | Percent survival ([2]; filter paper 1000 mg/l, Day 1, Soldier): 1.67 ± 1.67 b % | Percent survival ([2]; filter paper 1000 mg/l, Day 1, Worker): 6.67 ± 6.67 b % | Percent survival ([2]; filter paper 1000 mg/l, Day 5, Soldier): 0.0 ± 0.0 b % | Percent survival ([2]; filter paper 1000 mg/l, Day 5, Worker): 0.0 ± 0.0 c % | Percent survival ([2]; filter paper 1000 mg/l, Day 10, Soldier): 0.0 ± 0.0 c % | Percent survival ([2]; filter paper 1000 mg/l, Day 10, Worker): 0.0 ± 0.0 b % | concentration acutely toxic when applied to a sole food source ([2]; sole food source): 0.1 % (wt/v) | concentration at which termites showed decreased survival ([2]; sole food source impregnated (filter paper or wood slice)): 1000 mg/L
